Laboratory results reported in patent US20110159019A1, “2,4-DIAMINOPYRIMIDINE COMPOUND” (priority 2008, published 2011).

Biological target: T1, Cytochrome P450 (CYP3A4) (Homo sapiens, UniProt P08684)
T1 construct: human liver microsome (0.1 mg protein/mL); from tissue; host or cells: human liver microsomes
Assay: Measurement of cytochrome P450 (CYP3A4) enzyme inhibition activity in human liver microsome (inhibition tests I and II, midazolam substrate)
Assay type: in vitro ADME
Conditions: for I (%) Remaining Rate I: inhibition test I: 5 μM test compound, 2 μM midazolam, human liver microsome, 37° C. 20 minutes, no preincubation; for II (%) Remaining Rate II: inhibition test II: 5 μM test compound preincubated 30 minutes with human liver microsome and NADPH, then 2 μM midazolam 20 minutes, relative to test I
Experimental: Test Method 3: Measurement of Cytochrome P450 (CYP3A4) Enzyme Inhibition Activity i) Inhibition Test I (Calculation of Remaining Rate I)
Using a 96-well plate, 2 μM of a substrate (midazolam), 5 μM of a test compound, and human liver microsome (0.1 mg protein/mL) were incubated at 37° C. for 20 minutes in a total amount of 150 μL of a 100 mM phosphate buffer (pH 7.4) containing 0.1 mM EDTA and 1 mM NADPH. Then, the reaction was stopped by adding 130 μl of an aqueous solution containing 80% acetonitrile. Thereafter, the samples were analyzed by LC/MS/MS, and the remaining rates I were calculated using the following equation 1.
Remaining Rate I(%)=Ai,I/Ao,I×100 (Equation 1)
Ai, I=Amount of produced metabolite after reaction in the presence of the test compound in the inhibition test I Ao, I=Amount of produced metabolite after reaction in the absence of the test compound in the inhibition test I ii) Inhibition Test II (Calculation of Remaining Rate II)
Using a 96-well plate, 5 μM of a test compound and human liver microsome (0.1 mg protein/mL) were incubated at 37° C. for 30 minutes in a total amount of 145 μL of a 100 mM phosphate buffer (pH=7.4) containing 0.1 mM EDTA and 1 mM NADPH. Then, 2 μM of midazolam as the substrate was added thereto at a total amount of 150 μL of and incubated at 37° C. for 20 minutes. After the incubation, the reaction was stopped by adding 130 μL of an aqueous solution containing 80% acetonitrile. Thereafter, the samples were analyzed by LC/MS/MS, and the remaining rate II was calculated using the following equation 2.
Remaining Rate II(%)=Ai,II/Ao,II/(Ai,I/Ao,I)×100 (Equation 2)
Ai, II=Amount of produced metabolite after reaction in the presence of the test compound in the inhibition test II […]=Amount of produced metabolite after reaction in the absence of the test compound in the inhibition test II […]
Ex represents No. of the Example Compounds as described below.

T1 sequence (P08684 whole entry): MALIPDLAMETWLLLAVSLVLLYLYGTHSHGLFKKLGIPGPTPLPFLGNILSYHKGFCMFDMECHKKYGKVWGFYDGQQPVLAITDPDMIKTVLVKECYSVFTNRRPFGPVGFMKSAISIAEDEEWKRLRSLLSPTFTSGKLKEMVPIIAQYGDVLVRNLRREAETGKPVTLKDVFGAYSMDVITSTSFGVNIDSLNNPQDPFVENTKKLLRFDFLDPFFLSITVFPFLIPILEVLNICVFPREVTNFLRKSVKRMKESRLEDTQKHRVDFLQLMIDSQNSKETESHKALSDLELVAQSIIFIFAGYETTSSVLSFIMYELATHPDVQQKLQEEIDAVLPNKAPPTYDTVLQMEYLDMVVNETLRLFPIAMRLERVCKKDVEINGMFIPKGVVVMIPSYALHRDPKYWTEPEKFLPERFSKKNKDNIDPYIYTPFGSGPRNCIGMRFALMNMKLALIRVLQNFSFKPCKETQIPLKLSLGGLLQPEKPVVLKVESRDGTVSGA

I (%) Remaining Rate I [%] | II (%) Remaining Rate II [%] | SMILES
87 | 81 | COc1ccccc1CNc1ncc(C#N)c(NC[C@]23CC4C[C@H](C2)[C@@H](N[C@H]2CC[C@H](O)CC2)[C@@H](C4)C3)n1 (relative stereo) [Example 62]
82 | 90 | CSc1ccccc1CNc1ncc(C#N)c(NC[C@]23CC4C[C@H](C2)[C@@H](NC2CCC(O)CC2)[C@@H](C4)C3)n1 (relative stereo) [Example 68, rel-4-[({(1S,3R,4S,5S)-4-[(4-hydroxycyclohexyl)amino]adamantan-1-yl}methyl)amino]-2-{[2-(methylsulfanyl)benzyl]amino}pyrimidine-5-carbonitrile]
77 | 94 | COCCN1CCC(N[C@@H]2[C@@H]3CC4C[C@H]2C[C@@](CNc2nc(NCc5ccccc5Cl)ncc2C#N)(C4)C3)CC1 (relative stereo) [Example 210]
81 | 85 | N#Cc1cnc(NCc2ccccc2Cl)nc1NC[C@]12CC3C[C@H](C1)[C@@H](NC1CCN(CCF)CC1)[C@@H](C3)C2 (relative stereo) [Example 212]
92 | 90 | N#Cc1cnc(NCc2ccccc2Cl)nc1NC[C@]12CC3C[C@H](C1)[C@@H](NCC1CCN(CCO)CC1)[C@@H](C3)C2 (relative stereo) [Example 216]
82 | 85 | N#Cc1cnc(NCc2ccccc2Cl)nc1NC[C@]12CC3C[C@H](C1)[C@@H](N[C@H]1CC[C@@H](NCCO)CC1)[C@@H](C3)C2 (relative stereo) [Example 220, rel-2-[(2-chlorobenzyl)amino]-4-({[(1R,3S,4R,5R)-4-({cis-4-[(2-hydroxyethyl)amino]cyclohexyl}amino)adamantan-1-yl]methyl}amino)pyrimidine-5-carbonitrile]
79 | 91 | CSc1ccccc1CNc1ncc(C#N)c(NC[C@]23CC4C[C@H](C2)C(NC[C@H]2CC[C@H](O)CC2)[C@@H](C4)C3)n1 (relative stereo) [Example 228]
88 | 94 | COc1ncccc1CNc1ncc(C#N)c(NC[C@]23CC4C[C@H](C2)C(N[C@H]2CC[C@H](CO)CC2)[C@@H](C4)C3)n1 (relative stereo) [Example 232]
75 | 81 | N#Cc1cnc(NCc2ccccc2Cl)nc1NC[C@]12CC3C[C@H](C1)[C@@H](NC1CCC(N4CCC[C@@H]4CO)CC1)[C@@H](C3)C2 (relative stereo) [Example 238]
88 | 82 | CN1CCC(N[C@@H]2[C@@H]3CC4C[C@H]2C[C@@](CNc2nc(NCc5ccccc5Cl)ncc2C#N)(C4)C3)CC1 (relative stereo) [Example 248]
85 | 80 | COc1ncccc1CNc1ncc(C#N)c(NC[C@]23CC4C[C@H](C2)[C@@H](NC2CCC(O)CC2)[C@@H](C4)C3)n1 (relative stereo) [Example 252]
88 | 90 | CSc1ncccc1CNc1ncc(C#N)c(NC[C@]23CC4C[C@H](C2)[C@@H](NC2CCC(O)CC2)[C@@H](C4)C3)n1 (relative stereo) [Example 258]
83 | 99 | N#Cc1cnc(NCc2ccccc2Cl)nc1NC[C@]12CC3C[C@H](C1)[C@@H](NC1CCN(C4CCOCC4)CC1)[C@@H](C3)C2 (relative stereo) [Example 266]
89 | 83 | CC(=O)N1CCC(N[C@H]2CC[C@@H](N[C@@H]3[C@@H]4CC5C[C@H]3C[C@@](CNc3nc(NCc6ccccc6Cl)ncc3C#N)(C5)C4)CC2)CC1 (relative stereo) [Example 281, rel-4-({[(1R,3S,4R,5R)-4-({cis-4-[(1-acetylpiperidin-4-yl)amino]cyclohexyl}amino)adamantan-1-yl]methyl}amino)-2-[(2-chlorobenzyl)amino]pyrimidine-5-carbonitrile]
81 | 91 | N#Cc1cnc(NCc2ccccc2Cl)nc1NC[C@]12CC3C[C@H](C1)[C@@H](N[C@H]1CC[C@@H](NC4CCOCC4)CC1)[C@@H](C3)C2 (relative stereo) [Example 282]
85 | 88 | CSc1ccccc1CNc1ncc(C#N)c(NC[C@]23CC4C[C@H](C2)[C@@H](NC2CCNCC2)[C@@H](C4)C3)n1 (relative stereo) [Example 290]

I (%) Remaining Rate I [%] | II (%) Remaining Rate II [%] | SMILES
85 | 84 | CC1(N)CCC(N[C@@H]2[C@@H]3CC4C[C@H]2C[C@@](CNc2nc(NCc5ccccc5Cl)ncc2C#N)(C4)C3)CC1 (relative stereo) [Example 314]
85 | 84 | CNC1CCC(N[C@@H]2[C@@H]3CC4C[C@H]2C[C@@](CNc2nc(NCc5ccccc5Cl)ncc2C#N)(C4)C3)CC1 (relative stereo) [Example 316]
92 | 95 | N#Cc1cnc(NCc2ccccc2OC(F)(F)F)nc1NC[C@]12CC3C[C@H](C1)[C@@H](NCC1CCNCC1)[C@@H](C3)C2 (relative stereo) [Example 329]
78 | 94 | CSc1ccccc1CNc1ncc(C#N)c(NC[C@]23CC4C[C@H](C2)[C@@H](NC[C@H]2CC[C@H](CO)CC2)[C@@H](C4)C3)n1 (relative stereo) [Example 339]
78 | 91 | COc1ncccc1CNc1ncc(C#N)c(NC[C@]23CC4C[C@H](C2)[C@@H](NC[C@H]2CC[C@H](CO)CC2)[C@@H](C4)C3)n1 (relative stereo) [Example 343]
94 | 81 | COc1ncccc1CNc1ncc(C#N)c(NC[C@]23CC4C[C@H](C2)[C@@H](NC[C@H]2CC[C@H](O)CC2)[C@@H](C4)C3)n1 (relative stereo) [Example 345]
94 | 81 | COc1ccccc1CNc1ncc(C#N)c(NC[C@]23CC4C[C@H](C2)[C@@H](NCC[C@@H](O)CO)[C@@H](C4)C3)n1 (relative stereo) [Example 352]
81 | 85 | C[C@]1(O)CC[C@H](CN[C@@H]2[C@@H]3CC4C[C@H]2C[C@@](CNc2nc(NCc5ccccc5Cl)ncc2C#N)(C4)C3)CC1 (relative stereo) [Example 370]
77 | 80 | COc1ccccc1CNc1ncc(C#N)c(NC[C@]23CC4C[C@H](C2)[C@@H](NC2CCC(C)(O)CC2)[C@@H](C4)C3)n1 (single isomer, unassigned) [Example 119]
84 | 81 | N#Cc1cnc(NCc2ccccc2Cl)nc1NC[C@]12CC3C[C@H](C1)[C@@H](NC1CCC(O)CC1)[C@@H](C3)C2 (stereo partly shown) [Example 95]
79 | 92 | N#Cc1cnc(NCc2ccccc2Cl)nc1NC[C@]12CC3C[C@H](C1)[C@@H](NC1CCN(CCO)CC1)[C@@H](C3)C2 [Example 209]
80 | 95 | CSc1ccccc1CNc1ncc(C#N)c(NC[C@]23CC4C[C@H](C2)C(NC[C@H]2CC[C@H](CO)CC2)[C@@H](C4)C3)n1 (stereo partly shown) [Example 229]
82 | 83 | CCN1CCC(N[C@@H]2[C@@H]3CC4C[C@H]2C[C@@](CNc2nc(NCc5ccccc5Cl)ncc2C#N)(C4)C3)CC1 [Example 249]
75 | 85 | N#Cc1cnc(NCc2cnccc2Cl)nc1NC[C@]12CC3C[C@H](C1)[C@@H](NC1CCC(O)CC1)[C@@H](C3)C2 (stereo partly shown) [Example 251]
91 | 87 | CSc1ccccc1CNc1ncc(C#N)c(NC[C@]23CC4C[C@H](C2)[C@@H](NC[C@H]2CC[C@H](O)CC2)[C@@H](C4)C3)n1 [Example 263]
85 | 86 | CNC1CCC(N[C@@H]2[C@@H]3CC4C[C@H]2C[C@@](CNc2nc(NCc5ccccc5Cl)ncc2C#N)(C4)C3)CC1 (stereo partly shown) [Example 315]
